Values of other authors in patent EP3125915B1, “PROCESS FOR PREPARING A POWDERED MIXTURE OF BORNEOL AND PLANT PROTEINS TO BE USED AS DIETARY OR FOOD SUPPLEMENT, AND RELATED DIETARY OR FOOD SUPPLEMENT” (priority 2014, dated 2015).
Read-outs that look alike come from different tables or passages of the source.

Tests used:
[1] = with borneol
[2] = not given; remark: listed apart in the source
[3] = not given; remark: listed apart in the source
[4] = with borneol; remark: listed apart in the source
[5] = with borneol; remark: listed apart in the source
[6] = with borneol; remark: listed apart in the source

In the case of `Cc1nc(C)c(C)nc1C.O=P(O)(O)O` [TMPP, tetramethylpyrazine phosphate], the “oral bioavailability of TMPP in brain tissue, times increased than that without borneol” value (oral borneol 15 mg kg^-1) is listed as 1.12 times, the “oral bioavailability of TMPP in mice plasma, times increased than that without borneol” value (oral borneol 15 mg kg^-1) is listed as 1.52 times and the “oral bioavailability of TMPP in brain tissue, times increased than that without borneol” value (oral borneol 30 mg kg^-1) is listed as 1.62 times. For the same molecule, the “oral bioavailability of TMPP in mice plasma, times increased than that without borneol” value (oral borneol 30 mg kg^-1) was 2.21 times, the “oral bioavailability of TMPP in brain tissue, times increased than that without borneol” value (oral borneol 90 mg kg^-1) was 1.93 times and the “oral bioavailability of TMPP in mice plasma, times increased than that without borneol” value (oral borneol 90 mg kg^-1) was 2.95 times.
In the case of `NC(=O)N1c2ccccc2C=Cc2ccccc21` [carbamazepine], the bioavailability of carbamazepine [1] is given as “significantly improve”.
For `OCc1ccc(O[C@@H]2O[C@H](CO)[C@@H](O)[C@H](O)[C@H]2O)cc1` [gastrodin], the “peak time of gastrodin in the plasma” value ([2]; administration of gastrodin alone) is listed as 30 min, the “peak time of gastrodin in the plasma” value ([2]; gastrodin co-administrated with borneol) is listed as 5 to 15 min and the “bioavailability of gastrodigenin in the brain was increased by” value ([2]; gastrodin co-administrated with borneol, compared with gastrodin alone) is listed as 33.6-108.8%.
In the case of `COC(=O)C1=CO[C@@H](O[C@@H]2O[C@H](CO)[C@@H](O)[C@H](O)[C@H]2O)[C@@H]2C(CO)=CC[C@H]12` [geniposide], the “brain delivery of geniposide” value ([3]; borneol high dose increasing from 2.0 g/kg to 4.0 g/kg) is listed as “decreased”, the “delivery of geniposide in the rat brain” value ([3]; borneol low dose range of 0.05-2.0 g/kg) is listed as “increases” and the permeability of geniposide ([4]; cortex and striatum regions) is listed as “no change”. For the same molecule, the permeability of geniposide ([4]; hippocampus and hypothalamus regions) was “increase”.
In the case of `Cc1ncc(CNC(=O)N(CCCl)N=O)c(N)n1` [nimustine], the “bioavailability of nimustine in the CSF” value [5] is listed as “increase”.
In the case of `O=c1c(O)c(-c2ccc(O)c(O)c2)oc2cc(O)cc(O)c12` [quercetin], the “absorption of quercetin in mice brain tissue” value [6] is listed as “improves”.
